# Measurements taken from patent EP0044212B1, “Herbicidal o-alkylsulfonyloxy- and o-alkylsulfonylamino-benzenesulfonamides” (E.I. DU PONT DE NEMOURS AND COMPANY, priority 1980, dated 1982).
# Tests used:
# Experiment in all cases: Test A greenhouse herbicide screen
# Wild Oats = type: in vivo, Avena fatua; conditions: 16 days
# Text: (§1) Seeds of crabgrass (Digitaria spp.), barnyardgrass (Echinochloa crusgalli), wild oats (Avena fatua), cassia (Cassia tora), morningglory (Ipomoea sp.), cocklebur (Xanthium spp.), sorghum, corn, soybean, rice, wheat and nutsedge tubers (Cyperus rotundus) were planted in a growth medium and treated preemergence with the chemicals dissolved in a non-phytotoxic solvent solution of the compounds of Table A. At the same time, cotton having five leaves (including cotyledonary ones), bush beans with the third trifoliate leaf expanding, crabgrass and barnyardgrass with two leaves, wild oats with two leaves, cassia with three leaves (including cotyledonary ones), morningglory and cocklebur with four leaves (including the cotyldonary ones), sorghum and corn with four leaves, soybean with two cotyledonary leaves, rice with three leaves, wheat with one leaf, and nutsedge with three-five leaves were sprayed with a non-phytotoxic solvent solution of the compounds of Table A. Other containers of the above mentioned weeds and crops were treated pre- or post-emergence with the same non-phytotoxic solvent so as to provide a solvent control. A set of untreated control plants was also included for comparison. Pre- emergence and post-emergence treated plants and controls were maintained in a greenhouse for sixteen days, then all treated plants were compared with their respective controls and rated visually for response to treatment.
# Nutsedge = type: in vivo, Cyperus rotundus; parameters: scale not given here; conditions: 16 days
# Text: as §1
# Bush Bean = type: in vivo, bush beans; conditions: POST-EMERGENCE, 16 days
# Text: as §1
# Corn = type: in vivo; conditions: 16 days
# Text: as §1
# Sorghum = type: in vivo; conditions: 16 days
# Text: as §1
# Cotton = type: in vivo; conditions: POST-EMERGENCE, 16 days
# Text: as §1
# Crabgrass = type: in vivo, Digitaria spp.; parameters: scale not given here; conditions: 16 days
# Text: as §1
# Barnyardgrass = type: in vivo, Echinochloa crusgalli; conditions: 16 days
# Text: as §1
# Morningglory = type: in vivo, Ipomoea sp.; conditions: 16 days
# Text: as §1
# Cassia = type: in vivo, Cassia tora; parameters: scale not given here; conditions: 16 days
# Text: as §1
# Cocklebur = type: in vivo, Xanthium spp.; conditions: 16 days
# Text: as §1
# Soybean = type: in vivo; parameters: scale not given here; conditions: 16 days
# Text: as §1
# Rice = type: in vivo; parameters: scale not given here; conditions: 16 days
# Text: as §1
# Wheat = type: in vivo; parameters: scale not given here; conditions: 16 days
# Text: as §1
smiles,measurement,setting,value
COc1nc(C)nc(NC(=O)NS(=O)(=O)c2cc(Cl)cc(Cl)c2OS(C)(=O)=O)n1 [Compound 43],Wild Oats response rating,"Wild Oats; POST-EMERGENCE, 2 kg/ha",0
same,Wild Oats response rating,"Wild Oats; POST-EMERGENCE, 6 kg/ha",0
same,Wild Oats response rating,"Wild Oats; PRE-EMERGENCE, 2 kg/ha",0
same,Nutsedge response rating,"Nutsedge; POST-EMERGENCE, 2 kg/ha",0
same,Nutsedge response rating,"Nutsedge; POST-EMERGENCE, 6 kg/ha",0
same,Nutsedge response rating,"Nutsedge; PRE-EMERGENCE, 2 kg/ha",0
same,Nutsedge response rating,"Nutsedge; PRE-EMERGENCE, 6 kg/ha",0
same,Bush Bean response rating,Bush Bean; 2 kg/ha,0
same,Bush Bean response rating,Bush Bean; 6 kg/ha,3C
same,Corn response rating,"Corn; POST-EMERGENCE, 2 kg/ha",0
same,Corn response rating,"Corn; POST-EMERGENCE, 6 kg/ha",0
same,Corn response rating,"Corn; PRE-EMERGENCE, 2 kg/ha",0
same,Sorghum response rating,"Sorghum; POST-EMERGENCE, 2 kg/ha",0
same,Sorghum response rating,"Sorghum; POST-EMERGENCE, 6 kg/ha",0
same,Sorghum response rating,"Sorghum; PRE-EMERGENCE, 2 kg/ha",0
same,Cotton response rating,Cotton; 2 kg/ha,0
same,Cotton response rating,Cotton; 6 kg/ha,3C
same,Crabgrass response rating,"Crabgrass; POST-EMERGENCE, 2 kg/ha",0
same,Crabgrass response rating,"Crabgrass; POST-EMERGENCE, 6 kg/ha",0
same,Crabgrass response rating,"Crabgrass; PRE-EMERGENCE, 2 kg/ha",0
same,Crabgrass response rating,"Crabgrass; PRE-EMERGENCE, 6 kg/ha",2G
same,Barnyardgrass response rating,"Barnyardgrass; POST-EMERGENCE, 2 kg/ha",0
same,Barnyardgrass response rating,"Barnyardgrass; POST-EMERGENCE, 6 kg/ha",1C
same,Barnyardgrass response rating,"Barnyardgrass; PRE-EMERGENCE, 2 kg/ha",0
same,Morningglory response rating,"Morningglory; POST-EMERGENCE, 2 kg/ha",0
same,Morningglory response rating,"Morningglory; POST-EMERGENCE, 6 kg/ha",0
same,Morningglory response rating,"Morningglory; PRE-EMERGENCE, 2 kg/ha",0
same,Morningglory response rating,"Morningglory; PRE-EMERGENCE, 6 kg/ha",3C
same,Cassia response rating,"Cassia; POST-EMERGENCE, 2 kg/ha",0
same,Cassia response rating,"Cassia; POST-EMERGENCE, 6 kg/ha",1C
same,Cassia response rating,"Cassia; PRE-EMERGENCE, 2 kg/ha",0
same,Cassia response rating,"Cassia; PRE-EMERGENCE, 6 kg/ha",3G
same,Cocklebur response rating,"Cocklebur; POST-EMERGENCE, 2 kg/ha",0
same,Cocklebur response rating,"Cocklebur; POST-EMERGENCE, 6 kg/ha",0
same,Cocklebur response rating,"Cocklebur; PRE-EMERGENCE, 2 kg/ha",0
same,Soybean response rating,"Soybean; POST-EMERGENCE, 2 kg/ha",0
same,Soybean response rating,"Soybean; POST-EMERGENCE, 6 kg/ha",1C
same,Soybean response rating,"Soybean; PRE-EMERGENCE, 2 kg/ha",0
same,Soybean response rating,"Soybean; PRE-EMERGENCE, 6 kg/ha",0
same,Rice response rating,"Rice; POST-EMERGENCE, 2 kg/ha",0
same,Rice response rating,"Rice; POST-EMERGENCE, 6 kg/ha",0
same,Rice response rating,"Rice; PRE-EMERGENCE, 2 kg/ha",0
same,Rice response rating,"Rice; PRE-EMERGENCE, 6 kg/ha",1C
same,Wheat response rating,"Wheat; POST-EMERGENCE, 2 kg/ha",0
same,Wheat response rating,"Wheat; POST-EMERGENCE, 6 kg/ha",0
same,Wheat response rating,"Wheat; PRE-EMERGENCE, 2 kg/ha",0
same,Wheat response rating,"Wheat; PRE-EMERGENCE, 6 kg/ha",0
COc1nc(NC(=O)NS(=O)(=O)c2cc(Cl)cc(Cl)c2OS(C)(=O)=O)nc(OC)n1 [Compound 44],Wild Oats response rating,"Wild Oats; POST-EMERGENCE, 2 kg/ha",0
same,Wild Oats response rating,"Wild Oats; POST-EMERGENCE, 6 kg/ha",0
same,Wild Oats response rating,"Wild Oats; PRE-EMERGENCE, 2 kg/ha",0
same,Wild Oats response rating,"Wild Oats; PRE-EMERGENCE, 6 kg/ha",0
same,Nutsedge response rating,"Nutsedge; POST-EMERGENCE, 2 kg/ha",0
same,Nutsedge response rating,"Nutsedge; POST-EMERGENCE, 6 kg/ha",0
same,Nutsedge response rating,"Nutsedge; PRE-EMERGENCE, 2 kg/ha",0
same,Nutsedge response rating,"Nutsedge; PRE-EMERGENCE, 6 kg/ha",0
same,Bush Bean response rating,Bush Bean; 2 kg/ha,0
same,Bush Bean response rating,Bush Bean; 6 kg/ha,0
same,Corn response rating,"Corn; POST-EMERGENCE, 2 kg/ha",0
same,Corn response rating,"Corn; POST-EMERGENCE, 6 kg/ha",0
same,Corn response rating,"Corn; PRE-EMERGENCE, 2 kg/ha",0
same,Sorghum response rating,"Sorghum; POST-EMERGENCE, 2 kg/ha",0
same,Sorghum response rating,"Sorghum; POST-EMERGENCE, 6 kg/ha",2C
same,Sorghum response rating,"Sorghum; PRE-EMERGENCE, 2 kg/ha",0
same,Sorghum response rating,"Sorghum; PRE-EMERGENCE, 6 kg/ha",2C
same,Cotton response rating,Cotton; 2 kg/ha,0
same,Cotton response rating,Cotton; 6 kg/ha,2C
same,Crabgrass response rating,"Crabgrass; POST-EMERGENCE, 2 kg/ha",0
same,Crabgrass response rating,"Crabgrass; POST-EMERGENCE, 6 kg/ha",0
same,Crabgrass response rating,"Crabgrass; PRE-EMERGENCE, 2 kg/ha",0
same,Crabgrass response rating,"Crabgrass; PRE-EMERGENCE, 6 kg/ha",0
same,Barnyardgrass response rating,"Barnyardgrass; POST-EMERGENCE, 2 kg/ha",0
same,Barnyardgrass response rating,"Barnyardgrass; POST-EMERGENCE, 6 kg/ha",0
same,Barnyardgrass response rating,"Barnyardgrass; PRE-EMERGENCE, 2 kg/ha",0
same,Barnyardgrass response rating,"Barnyardgrass; PRE-EMERGENCE, 6 kg/ha",5C
same,Morningglory response rating,"Morningglory; POST-EMERGENCE, 2 kg/ha",0
same,Morningglory response rating,"Morningglory; PRE-EMERGENCE, 2 kg/ha",0
same,Morningglory response rating,"Morningglory; PRE-EMERGENCE, 6 kg/ha",2C
same,Cassia response rating,"Cassia; POST-EMERGENCE, 2 kg/ha",0
same,Cassia response rating,"Cassia; POST-EMERGENCE, 6 kg/ha",0
same,Cassia response rating,"Cassia; PRE-EMERGENCE, 2 kg/ha",0
same,Cassia response rating,"Cassia; PRE-EMERGENCE, 6 kg/ha",5G
same,Cocklebur response rating,"Cocklebur; POST-EMERGENCE, 2 kg/ha",0
same,Cocklebur response rating,"Cocklebur; POST-EMERGENCE, 6 kg/ha",0
same,Cocklebur response rating,"Cocklebur; PRE-EMERGENCE, 2 kg/ha",0
same,Cocklebur response rating,"Cocklebur; PRE-EMERGENCE, 6 kg/ha",5H
same,Soybean response rating,"Soybean; POST-EMERGENCE, 2 kg/ha",0
same,Soybean response rating,"Soybean; POST-EMERGENCE, 6 kg/ha",3G
same,Soybean response rating,"Soybean; PRE-EMERGENCE, 2 kg/ha",0
same,Soybean response rating,"Soybean; PRE-EMERGENCE, 6 kg/ha",0
same,Rice response rating,"Rice; POST-EMERGENCE, 2 kg/ha",0
same,Rice response rating,"Rice; POST-EMERGENCE, 6 kg/ha",0
same,Rice response rating,"Rice; PRE-EMERGENCE, 2 kg/ha",0
same,Rice response rating,"Rice; PRE-EMERGENCE, 6 kg/ha",1C
same,Wheat response rating,"Wheat; POST-EMERGENCE, 2 kg/ha",0
same,Wheat response rating,"Wheat; POST-EMERGENCE, 6 kg/ha",0
same,Wheat response rating,"Wheat; PRE-EMERGENCE, 2 kg/ha",0
same,Wheat response rating,"Wheat; PRE-EMERGENCE, 6 kg/ha",0
